One assay deals with NAMPT (Homo sapiens (Human), UniProt P43490). In words: NAMPT biochemical inhibition assay (NMN quantified by mass spectrometry). To be noted: NAMPT biochemical inhibition; read-out: Biochem IC50.
Another assay has as its system A2780 cells. In words: In-vitro cell proliferation assay (SRB), A2780 cells.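 Further: viable cell number read as SRB absorbance, background from media-only wells subtracted, IC50 interpolated from percent inhibition at two bracketing compound concentrations.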 It is filed as cell-based. To be noted: A2780 cells, 72 hours, SRB, read-out: A2780 IC50.

Structures are written as SMILES. Where two headings read alike, the source gives them in different places.

Chain of NAMPT (P43490 whole entry): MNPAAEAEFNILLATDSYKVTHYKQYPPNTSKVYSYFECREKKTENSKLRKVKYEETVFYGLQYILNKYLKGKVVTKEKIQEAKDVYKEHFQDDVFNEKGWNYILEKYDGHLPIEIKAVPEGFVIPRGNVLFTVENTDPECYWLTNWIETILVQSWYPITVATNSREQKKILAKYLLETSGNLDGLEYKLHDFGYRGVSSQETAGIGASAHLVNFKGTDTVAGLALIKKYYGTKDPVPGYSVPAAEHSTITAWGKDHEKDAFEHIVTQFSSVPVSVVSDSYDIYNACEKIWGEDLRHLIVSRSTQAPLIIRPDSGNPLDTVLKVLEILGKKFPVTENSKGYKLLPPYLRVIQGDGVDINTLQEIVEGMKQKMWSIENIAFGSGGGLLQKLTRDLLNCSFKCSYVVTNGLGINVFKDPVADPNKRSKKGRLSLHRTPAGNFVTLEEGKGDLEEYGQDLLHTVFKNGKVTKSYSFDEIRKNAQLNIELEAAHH

As for `O=C(NCc1cccnc1)Nc1ccc(S(=O)(=O)Nc2ccccc2N2CCCC2)cc1` [3-(pyridin-3-ylmethyl)-1-(4-{[2-(pyrrolidin-1-yl)phenyl]sulfamoyl}phenyl)urea], the IC50 (as a rule, the concentration at which inhibition is half-maximal) at NAMPT came out at 13 nM; in the assay with A2780 cells (Homo sapiens, A2780, 72 h) it was 11 nM.

`O=C(NCc1cccnc1)Nc1ccc(S(=O)(=O)N2CCc3ncccc3C2)cc1` [3-(pyridin-3-ylmethyl)-1-[4-(5,6,7,8-tetrahydro-1,6-naphthyridine-6-sulfonyl)phenyl]urea]: the IC50 at NAMPT is 16 nM; with A2780 cells (Homo sapiens, A2780, 72 h), 111 nM.

For `O=C(NCc1cccnc1)Nc1ccc(S(=O)(=O)c2cccnc2)cc1` [3-(pyridin-3-ylmethyl)-1-[4-(pyridine-3-sulfonyl)phenyl]urea], the IC50 on NAMPT stood at 5 nM; in the assay with A2780 cells (Homo sapiens, A2780, 72 h), 595 nM.

On to `O=C(NCc1cccnc1)Nc1ccc(S(=O)(=O)c2ccncc2)cc1` [3-(pyridin-3-ylmethyl)-1-[4-(pyridine-4-sulfonyl)phenyl]urea], for which the IC50 on NAMPT was 11 nM; in the assay on A2780 cells (Homo sapiens, A2780, 72 h), 488 nM.

On to `O=C(NCc1cccnc1)Nc1ccc(S(=O)(=O)c2cncnc2)cc1` [3-(pyridin-3-ylmethyl)-1-[4-(pyrimidine-5-sulfonyl)phenyl]urea], for which the IC50 on NAMPT stood at 20 nM; in the assay with A2780 cells (Homo sapiens, A2780, 72 h) it was 871 nM.

Take `O=C(NCc1cccnc1)Nc1ccc(S(=O)(=O)c2cnc3ccccc3c2)cc1` [3-(pyridin-3-ylmethyl)-1-[4-(quinoline-3-sulfonyl)phenyl]urea]: the IC50 on NAMPT is 2.8 nM; in the assay with A2780 cells (Homo sapiens, A2780, 72 h) it was 28 nM.

As to `O=C(NCc1cccnc1)Nc1ccc(S(=O)(=O)c2ccc3ncccc3c2)cc1` [3-(pyridin-3-ylmethyl)-1-[4-(quinoline-6-sulfonyl)phenyl]urea], the IC50 on NAMPT was 2.7 nM; in the assay on A2780 cells (Homo sapiens, A2780, 72 h), 44.1 nM.

`O=C(NCc1cccnc1)Nc1ccc(S(=O)(=O)c2cccc3cccnc23)cc1` [3-(pyridin-3-ylmethyl)-1-[4-(quinoline-8-sulfonyl)phenyl]urea]: the IC50 came out at 1.4 nM on NAMPT and 2.2 nM with A2780 cells (Homo sapiens, A2780, 72 h).

For the compound `O=C(NCc1cccnc1)Nc1ccc(S(=O)(=O)c2ccc(C(=O)N3CCCC3)cc2)cc1` [3-(pyridin-3-ylmethyl)-1-[4-({4-[(pyrrolidin-1-yl)carbonyl]benzene}sulfonyl)phenyl]urea], the IC50 at NAMPT was found to be 1.3 nM; in the assay on A2780 cells (Homo sapiens, A2780, 72 h) it was 7.6 nM.

Take `O=C(NCc1cccnc1)Nc1ccc(S(=O)(=O)N2CCC[C@H](C(=O)N3CCCC3)C2)cc1` [3-(pyridin-3-ylmethyl)-1-{4-[(3S)-3-[(pyrrolidin-1-yl)carbonyl]piperidine-1-sulfonyl]phenyl}urea]: the concentration for half-maximal inhibition (IC50) on NAMPT is 9 nM; in the assay with A2780 cells (Homo sapiens, A2780, 72 h) it was 137 nM.

For the compound `O=C(NCc1cccnc1)Nc1ccc(S(=O)(=O)Nc2cccc3c2CCCC3)cc1` [3-(pyridin-3-ylmethyl)-1-{4-[(5,6,7,8-tetrahydronaphthalen-1-yl)sulfamoyl]phenyl}urea], the IC50 on NAMPT turned out to be 0.3 nM; in the assay with A2780 cells (Homo sapiens, A2780, 72 h), 45 nM.

For `O=C(NCc1cccnc1)Nc1ccc(S(=O)(=O)N2CCCCC2)cc1F` [3-[2-fluoro-4-(piperidine-1-sulfonyl)phenyl]-1-(pyridin-3-ylmethyl)urea], the IC50 at NAMPT stood at 23 nM; in the assay on A2780 cells (Homo sapiens, A2780, 72 h), 1000 nM.

Turning to `Cn1ncc2c(S(=O)(=O)c3ccc(NC(=O)NCc4cccnc4)cc3)cccc21` [3-[4-(1-methyl-1H-indazole-4-sulfonyl)phenyl]-1-(pyridin-3-ylmethyl)urea], the IC50 turned out to be 1 nM on NAMPT and 59.9 nM with A2780 cells (Homo sapiens, A2780, 72 h).

For the compound `Cn1ncc2cc(S(=O)(=O)c3ccc(NC(=O)NCc4cccnc4)cc3)ccc21` [3-[4-(1-methyl-1H-indazole-5-sulfonyl)phenyl]-1-(pyridin-3-ylmethyl)urea], the IC50 on NAMPT came out at 1.8 nM; in the assay with A2780 cells (Homo sapiens, A2780, 72 h), 92.5 nM.

Regarding `Cn1ncc2ccc(S(=O)(=O)c3ccc(NC(=O)NCc4cccnc4)cc3)cc21` [3-[4-(1-methyl-1H-indazole-6-sulfonyl)phenyl]-1-(pyridin-3-ylmethyl)urea], the IC50 at NAMPT was 2.5 nM; in the assay with A2780 cells (Homo sapiens, A2780, 72 h) it was 35.4 nM.

As to `Cn1ncc2cccc(S(=O)(=O)c3ccc(NC(=O)NCc4cccnc4)cc3)c21` [3-[4-(1-methyl-1H-indazole-7-sulfonyl)phenyl]-1-(pyridin-3-ylmethyl)urea], the IC50 on NAMPT is 14.4 nM; in the assay with A2780 cells (Homo sapiens, A2780, 72 h) it was 100 to 1000 nM.

As to `Cn1c(S(=O)(=O)c2ccc(NC(=O)NCc3cccnc3)cc2)cc2ccccc21` [3-[4-(1-methyl-1H-indole-2-sulfonyl)phenyl]-1-(pyridin-3-ylmethyl)urea], the IC50 stood at 3 nM at NAMPT and 63.5 nM in the assay with A2780 cells (Homo sapiens, A2780, 72 h).

With `CCCn1cc(S(=O)(=O)c2ccc(NC(=O)NCc3cccnc3)cc2)cn1` [3-[4-(1-propyl-1H-pyrazole-4-sulfonyl)phenyl]-1-(pyridin-3-ylmethyl)urea], the IC50 on NAMPT was 6.3 nM; in the assay with A2780 cells (Homo sapiens, A2780, 72 h) it was 13.1 nM.

`O=C(NCc1cccnc1)Nc1ccc(S(=O)(=O)N2CCc3ccccc32)cc1` [3-[4-(2,3-dihydro-1H-indole-1-sulfonyl)phenyl]-1-(pyridin-3-ylmethyl)urea]: the IC50 on NAMPT turned out to be 2 nM; in the assay on A2780 cells (Homo sapiens, A2780, 72 h), 31 nM.

In the case of `COc1ncc(S(=O)(=O)c2ccc(NC(=O)NCc3cccnc3)cc2)c(OC)n1` [3-[4-(2,4-dimethoxypyrimidine-5-sulfonyl)phenyl]-1-(pyridin-3-ylmethyl)urea], the IC50 on NAMPT came out at 6.7 nM; in the assay on A2780 cells (Homo sapiens, A2780, 72 h), 21 nM.

Regarding `COc1ccc2ccccc2c1S(=O)(=O)c1ccc(NC(=O)NCc2cccnc2)cc1` [3-[4-(2-methoxynaphthalene-1-sulfonyl)phenyl]-1-(pyridin-3-ylmethyl)urea], the IC50 on NAMPT amounted to 2 nM; with A2780 cells (Homo sapiens, A2780, 72 h), 12 nM.

Turning to `COc1ncc(S(=O)(=O)c2ccc(NC(=O)NCc3cccnc3)cc2)cn1` [3-[4-(2-methoxypyrimidine-5-sulfonyl)phenyl]-1-(pyridin-3-ylmethyl)urea], the IC50 at NAMPT was 8.7 nM; with A2780 cells (Homo sapiens, A2780, 72 h), 100 to 1000 nM.

Turning to `Cc1ncccc1S(=O)(=O)c1ccc(NC(=O)NCc2cccnc2)cc1` [3-[4-(2-methylpyridine-3-sulfonyl)phenyl]-1-(pyridin-3-ylmethyl)urea], the IC50 on NAMPT is 7.2 nM; with A2780 cells (Homo sapiens, A2780, 72 h), 100 to 1000 nM.

Take `O=C(NCc1cccnc1)Nc1ccc(S(=O)(=O)N2CC(F)(F)C2)cc1` [3-[4-(3,3-difluoroazetidine-1-sulfonyl)phenyl]-1-(pyridin-3-ylmethyl)urea]: the IC50 is 59 nM at NAMPT and 7860 nM in the assay on A2780 cells (Homo sapiens, A2780, 72 h).

As to `Cc1noc(C)c1S(=O)(=O)c1ccc(NC(=O)NCc2cccnc2)cc1` [3-[4-(3,5-dimethyl-1,2-oxazole-4-sulfonyl)phenyl]-1-(pyridin-3-ylmethyl)urea], the IC50 at NAMPT amounted to 20 nM; with A2780 cells (Homo sapiens, A2780, 72 h), 850 nM.

As to `CC(C)c1ccc(CN2CCN(S(=O)(=O)c3ccc(NC(=O)NCc4cccnc4)cc3)CC2)cc1` [3-[4-(4-{[4-(propan-2-yl)phenyl]methyl[piperazine-1-sulfonyl)phenyl]-1-(pyridin-3-ylmethyl)urea], the IC50 on NAMPT is 35.8 nM; with A2780 cells, 1000 to 10000 nM.

Take `O=C(NCc1cccnc1)Nc1ccc(S(=O)(=O)c2cncc(Cl)c2)cc1` [3-[4-(5-chloropyridine-3-sulfonyl)phenyl]-1-(pyridin-3-ylmethyl)urea]: the IC50 at NAMPT is 2.6 nM; in the assay with A2780 cells (Homo sapiens, A2780, 72 h) it was 98.2 nM.

For `O=C(NCc1cccnc1)Nc1ccc(S(=O)(=O)c2cncc(F)c2)cc1` [3-[4-(5-fluoropyridine-3-sulfonyl)phenyl]-1-(pyridin-3-ylmethyl)urea], the IC50 on NAMPT is 8.7 nM; with A2780 cells (Homo sapiens, A2780, 72 h), 100 to 1000 nM.

As for `Cc1ccc(S(=O)(=O)c2ccc(NC(=O)NCc3cccnc3)cc2)s1` [3-[4-(5-methylthiophene-2-sulfonyl)phenyl]-1-(pyridin-3-ylmethyl)urea], the IC50 came out at 3 nM at NAMPT and 383 nM in the assay on A2780 cells (Homo sapiens, A2780, 72 h).

With `COc1ccc2cc(S(=O)(=O)c3ccc(NC(=O)NCc4cccnc4)cc3)ccc2c1` [3-[4-(6-methoxynaphthalene-2-sulfonyl)phenyl]-1-(pyridin-3-ylmethyl)urea], the IC50 was 1.6 nM at NAMPT and 100 to 1000 nM in the assay with A2780 cells (Homo sapiens, A2780, 72 h).

Regarding `COc1ccc(S(=O)(=O)c2ccc(NC(=O)NCc3cccnc3)cc2)cn1` [3-[4-(6-methoxypyridine-3-sulfonyl)phenyl]-1-(pyridin-3-ylmethyl)urea], the IC50 is 5 nM at NAMPT and 100 to 1000 nM with A2780 cells (Homo sapiens, A2780, 72 h).

Take `Cc1ccc(S(=O)(=O)c2ccc(NC(=O)NCc3cccnc3)cc2)cn1` [3-[4-(6-methylpyridine-3-sulfonyl)phenyl]-1-(pyridin-3-ylmethyl)urea]: the IC50 at NAMPT was 4.9 nM; in the assay with A2780 cells (Homo sapiens, A2780, 72 h), 100 to 1000 nM.

For `O=C(Nc1ccc(S(=O)(=O)c2ccccc2)cc1)Nc1ccc2ncccc2c1` [3-[4-(benzenesulfonyl)phenyl]-1-(quinolin-6-yl)urea], the IC50 on NAMPT was found to be 90 nM; in the assay on A2780 cells (Homo sapiens, A2780, 72 h), 15900 nM.

For the compound `O=C(NCc1ccc(-n2cccn2)nc1)Nc1ccc(S(=O)(=O)c2ccccc2)cc1` [3-[4-(benzenesulfonyl)phenyl]-1-{[6-(1H-pyrazol-1-yl)pyridin-3-yl]methyl}urea], the IC50 on NAMPT is 3790 nM; in the assay on A2780 cells (Homo sapiens, A2780, 72 h), more than 10000 nM.

As for `COCCOc1ccc(CNC(=O)Nc2ccc(S(=O)(=O)c3ccccc3)cc2)cn1` [3-[4-(benzenesulfonyl)phenyl]-1-{[6-(2-methoxyethoxy)pyridin-3-yl]methyl}urea], the IC50 was 2120 nM on NAMPT and more than 10000 nM with A2780 cells (Homo sapiens, A2780, 72 h).

With `O=C(NCc1cnccn1)Nc1ccc(S(=O)(=O)N2CCCCC2)cc1` [3-[4-(piperidine-1-sulfonyl)phenyl]-1-(pyrazin-2-ylmethyl)urea], the half-inhibitory concentration (IC50) on NAMPT is 273 nM; with A2780 cells (Homo sapiens, A2780, 72 h) it was more than 30000 nM.

As to `O=C(NCc1cncnc1)Nc1ccc(S(=O)(=O)N2CCCCC2)cc1` [3-[4-(piperidine-1-sulfonyl)phenyl]-1-(pyrimidin-5-ylmethyl)urea], the IC50 on NAMPT is 1140 nM; with A2780 cells (Homo sapiens, A2780, 72 h) it was more than 30000 nM.

Regarding `CC(NC(=O)Nc1ccc(S(=O)(=O)N2CCCCC2)cc1)c1cccnc1` (stereo not shown) [3-[4-(piperidine-1-sulfonyl)phenyl]-1-[1-(pyridin-3-yl)ethyl]urea], the half-maximal inhibitory concentration (IC50) on NAMPT is 22100 nM; with A2780 cells (Homo sapiens, A2780, 72 h), more than 30000 nM.
